According to patent US20190211099A1, “METHODS AND COMPOSITIONS FOR TREATING CANCER WITH SIGLEC-9 ACTIVITY MODULATORS” (KING'S COLLEGE LONDON, priority 2016, published 2019):

Experiments:
[1] = test system: recombinant Siglecs 3, 7, 9 and 10; assay: Binding of biotinylated MUC1 glycoforms to plate-bound recombinant Siglec fusion proteins; set-up: species or system human; details: 2 μg/ml biotinylated MUC1 glycoform, 4 hours; panel Siglec 3, 5, 7, 8, 9 and 10
Method: (§1) Binding was enhanced when cells were pre-treated with 0.04 U/ml neuraminidase for 30 minutes at 37° C. in PBS (FIG. 3C), which removes competing cis-binding sialic acid sites from the surface of the cells. As this pattern is characteristic of binding to Siglecs (Macauley et al. (2014) NAT. REV. IMMUNOL. 14: 653-666), MUC1-ST binding to Siglecs was tested as follows: mouse anti human IgG was bound to plastic O/N and the plate was blocked using 1% BSA in PBS. Recombinant human Siglec (3, 5, 7, 8, 9 and 10) fusion proteins were added at 2 μg/mL for 2 hours. After incubation with 2 μg/ml biotinylated MUC1 glycoforms for 4 hours, O.D. was measured after the addition of streptavidin-HRP and substrate. […] Although Siglecs 3, 7 and 9 are expressed by monocytes and macrophages (FIG. 3D), a blocking antibody to Siglec-9 inhibited 80-95% of the MUC1-ST binding to these cells (FIGS. 2G-2I, 3E, and 5) indicating this is the dominant binding Siglec. […] Importantly, Siglec-9 bound to the breast cancer cell line T47D that expresses MUC1 carrying sialylated Core-1 glycans (FIG. 2J). Finally, isolated monocytes were bound to 10 μg/mL biotinylated MUC1-ST or 10 μg/mL biotinylated polyacrylamide carrying the ST glycan (PAA-ST; Glycotech).

Siglec-9 [2] = target: T1, Siglec-9 (Homo sapiens, UniProt Q9Y336); assay: MUC1-ST binding to monocytic cell lines THP-1 and U937, with or without blocking antibody; type: cell-based; set-up: endogenous in cells; host or cells: THP-1 and U937 cells; details: time and concentration dependent
Method: Unless indicated otherwise, all binding experiments using purified immune cell subsets and biotinylated purified recombinant tumor-associated MUC1 glycoforms were performed as follows. 1×10^5 isolated/differentiated cells at 5×10^5 cells per mL were incubated for 4 hours on ice with 10 μg of the appropriate biotinylated recombinant MUC1 glycoform in 0.5% BSA in PBS. Cells were washed in 0.5% BSA in PBS before 1:200 SAPE (Life Technologies) was added for 30 minutes on ice. Cells were washed and analysed by flow cytometry or fluorescent microscopy (after cytospin), using streptavidin-PE (SAPE) as a label.
Target sequence in this assay (Q9Y336 18-463): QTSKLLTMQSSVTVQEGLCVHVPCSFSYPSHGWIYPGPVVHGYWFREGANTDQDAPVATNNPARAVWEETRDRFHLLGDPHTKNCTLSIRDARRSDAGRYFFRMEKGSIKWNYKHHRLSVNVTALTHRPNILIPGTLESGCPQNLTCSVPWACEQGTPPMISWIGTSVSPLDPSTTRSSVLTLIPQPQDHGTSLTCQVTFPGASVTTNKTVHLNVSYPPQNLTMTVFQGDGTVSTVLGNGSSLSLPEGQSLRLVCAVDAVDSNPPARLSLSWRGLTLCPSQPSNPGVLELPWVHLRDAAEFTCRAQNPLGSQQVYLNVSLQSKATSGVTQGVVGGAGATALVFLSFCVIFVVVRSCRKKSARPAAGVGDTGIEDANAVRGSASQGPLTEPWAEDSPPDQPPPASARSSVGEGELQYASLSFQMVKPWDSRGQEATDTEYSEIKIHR

THP-1 cells [3] = assay: PAI-1, M-CSF and kynurenine in supernatants of differentiated THP-1 cells; type: cell-based, human; details: 100 μg/mL MUC1-ST
Method: THP-1 cells were cultured at a concentration of 1×10^6/mL in AIM V medium. Cells were differentiated using […] phorbol 12-myristate 13-acetate (PMA) on day 0 and 100 ng/mL LPS on day 3 in the presence or absence of 100 μg/mL MUC1-ST or MUC1-T. Cell supernatants were harvested on day 5 and PAI-I concentration measured by ELISA.
Given that IDO catalyzes the rate-limiting step in the metabolism of tryptophan, the tryptophan metabolite kynurenine was detected as follows. 604, supernatant was mixed with 304, 30% trichloroacetic acid (TCA) and incubated for 30 minutes at 50° C. The supernatant was spun at 3000×g and 50 μL was harvested and mixed with 50 μL freshly prepared Ehrlich Reagent (2% p-dimethylaminobenzaldehyde in glacial acetic acid). After 10 minutes optical density (O.D.) was measured at 492 nm, and concentrations were calculated against a kynurenine standard curve. An increase in the tryptophan metabolite kynurenine was observed (FIG. 11D).
The intracellular effects of MUC1-ST binding to Siglec-9 were further explored in the monocytic cell line, THP-1. THP-1 cells were cultured for three days at a concentration of 1×10^6/mL in AIM V medium and differentiated using […] phorbol 12-myristate 13-acetate (PMA) in the presence or absence of 100 μg/mL MUC1-ST. […] THP-1 cells were further treated with DMSO or the MEK/ERK inhibitor PD98059 at 1004, and the concentration of PAI-1, M-CSF and kynurenine in cell supernatants were measured as described above. […] This increase in concentration was blocked by the MEK/ERK inhibitor PD98059 (FIG. 4I).

THP-1 cells [4] = assay: Calcium flux in differentiated THP-1 cells; type: cell-based, human; details: THP-1 differentiated with PMA, 100 μg/mL MUC1-ST
Method: (§2) In addition, in a murine tumor model Siglec-E (the mouse Siglec with the most similarity to human Siglec-9), was associated with a decrease in alternatively activated macrophages (Laubli et al. (2014) PROC. NATL. ACAD. SCI. USA). As a result, the triggering of a calcium flux when MUC1-ST engaged Siglec-9 was investigated. Briefly, monocytes pre-labeled with an intracellular calcium reporter (Fluo-4; Life Technologies) were treated with MUC1-ST, MUC1-T (100 μg/10^6 cells) or a T47D monolayer, for 4 hours at 4° C. The cells were brought up to 37° C. and calcium flux was measured at 530 nm using a plate reader at the indicated time points. Where not indicated, the time point was 60 seconds. When monocytes or macrophages were treated with MUC1-ST, a Siglec-9 dependent increase in calcium influx was observed (FIGS. 13E-F). A calcium flux was also observed when monocytes and T47D cells came into contact. This effect could also be inhibited by the anti-Siglec-9 antibody.
The intracellular effects of MUC1-ST binding to Siglec-9 were further explored in the monocytic cell line, THP-1. […] THP-1 cells were further treated with DMSO or the MEK/ERK inhibitor PD98059 at 1004, and the concentration of PAI-1, M-CSF and kynurenine in cell supernatants were measured as described above. […]

monocytes = assay: Calcium flux in monocytes (Fluo-4 intracellular calcium reporter); type: cell-based, human; details: monocytes or macrophages, 100 μg/10^6 cells
Method: as §2

Siglec-9 [5] = target: T1, Siglec-9; assay: Binding of biotinylated MUC1 glycoforms to plate-bound recombinant Siglec fusion proteins; details: 2 μg/ml biotinylated MUC1 glycoform, 4 hours; compared with Siglecs 3, 7 and 10
Method: as §1
Target sequence in this assay (Q9Y336 with tags, fused parts or gaps limits assumed): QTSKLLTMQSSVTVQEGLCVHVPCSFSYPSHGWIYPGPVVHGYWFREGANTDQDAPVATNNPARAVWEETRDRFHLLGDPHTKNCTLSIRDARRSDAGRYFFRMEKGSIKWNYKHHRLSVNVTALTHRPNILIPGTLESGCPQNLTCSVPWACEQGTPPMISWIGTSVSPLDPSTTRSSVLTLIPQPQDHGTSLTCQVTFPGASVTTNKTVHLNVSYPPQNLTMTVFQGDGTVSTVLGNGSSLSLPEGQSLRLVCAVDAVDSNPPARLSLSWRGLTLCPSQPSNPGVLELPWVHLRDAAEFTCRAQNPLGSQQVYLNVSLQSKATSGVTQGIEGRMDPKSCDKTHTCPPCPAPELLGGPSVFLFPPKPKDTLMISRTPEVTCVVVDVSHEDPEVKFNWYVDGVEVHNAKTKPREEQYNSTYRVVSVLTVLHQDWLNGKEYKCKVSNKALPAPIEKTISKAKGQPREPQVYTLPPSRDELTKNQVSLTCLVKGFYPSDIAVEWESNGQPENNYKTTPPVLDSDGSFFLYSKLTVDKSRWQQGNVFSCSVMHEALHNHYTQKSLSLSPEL

binding to recombinant Siglec fusion proteins [1]: bound | binding to cells (Siglec-9 [2]): found to bind | binding to recombinant Siglec fusion protein (Siglec-9 [5]): greatest binding
Substance: NeuAcα2,3Galβ1-3GalNAc linked via a Ser/Thr of MUC1 [MUC1-ST]
PAI-1 concentration in cell supernatants (THP-1 cells [3]; THP-1, PMA, three days): increased | kynurenine concentration in cell supernatants (THP-1 cells [3]; THP-1, PMA, three days): increased | PAI-I secretion (THP-1 cells [3]; THP-1 differentiated with PMA and LPS, day 5): increased | calcium flux (THP-1 cells [4]): induce calcium flux | calcium influx (monocytes): increase
